Data on one compound can be found in patent US20240100183A1, “COMPOSITIONS COMPRISING MOLECULES FOR CYSTIC FIBROSIS TREATMENT” (UNiversity of Iowa Research Foundation, priority 2020, published 2024).

Series [1] in a line: Ivacaftor solubility in the release medium. The class given is physicochemical. To be noted: release medium (polysorbate 80 in DPBS), aqueous with cosolvent or surfactant or cyclodextrin; 0.4% v/v polysorbate 80 in 1×DPBS, 37° C.
The conditions of series [2]: cited from earlier work; for aqueous (water) solubility: room temperature.
For series [3] the following is noted: oral 150 mg twice daily; cited from earlier work.
Series [4] in a line: Phase solubility of ivacaftor in cyclodextrin solutions. The class given is physicochemical. The conditions noted are these: for solubility at 3 days: aqueous with cosolvent or surfactant or cyclodextrin, thermodynamic from solid. How it is done: Excess amounts of powdered ivacaftor were suspended in different concentrations of different types of CD's (up to […] in the case of βCD, and up to […] in the case of αCD, γCD, and HPβCD). The suspensions were shaken at 3000 rpm at room temperature for 3 days. Then, samples were collected and filtered, and the concentration of ivacaftor was determined using HPLC, as described below. An Agilent HPLC workstation series 1100 (Agilent Technologies, Santa Clara, CA) was used for the analysis. The column used was Waters Symmetry C18 5 μm (4.6×150 mm), and the mobile phase consisted of 6:4 acetonitrile: water with 0.1% v/v trifluoroacetic acid (TFA) at a flow rate of 1 ml/min (at 25±2° C.). Detection was carried out using an Agilent Diode array detector (DAD) at 309 nm.

SMILES strings stand for the structures. Converted amounts (≈) assume the structure as drawn. “And” between values parts separate entries of the source, which are not always exact repeats. Identical values can stand only once. Like-named read-outs stand apart in the source and are kept apart here.

The term solubility denotes how much of the substance goes into solution per volume. The log P is a log measure of how a compound divides between an organic and an aqueous phase. By half-life is commonly meant the time needed for the level to fall by half in the phase considered. In series [1], `CC(C)(C)c1cc(C(C)(C)C)c(NC(=O)c2c[nH]c3ccccc3c2=O)cc1O` [Ivacaftor, N-(2,4-Di-tert-butyl-5-hydroxyphenyl)-4-oxo-1,4-dihydroquinoline-3-carboxamide] showed a solubility of 272 µg/mL (≈ 692 µM). In addition, the log partition coefficient (log P) was 3.13 in series [2] and 3.3 in series [2] (listed as IVA). For the same compound, the “aqueous (water) solubility” value in series [2] was “about 0.05 μg/ml”; in series [2] (listed as IVA), < 0.05 µg/mL. Further, the half-life in series [3] is 9 to 12 h. Moreover, the “solubility in βCD relative to aqueous solubility” value in series [4] (10 μM βCD) is “about 24 times”. In series [4] (25 μM γCD), the “solubility in γCD relative to aqueous solubility” value was “about 10 times”. In series [4] (50 μM HPβCD), the “solubility in HPβCD relative to aqueous solubility” value is on record as “about 1000 times”. Moreover, the “solubility in HPβCD relative to maximum βCD concentration” value in series [4] (50 μM HPβCD vs 10 μM βCD) is given as “about 40 times”. Besides, the “solubility in HPβCD relative to αCD and γCD” value in series [4] (50 μM of each CD) is listed as 100-150 times. In addition, the solubility at 3 days in series [4] (HPβCD solution, 50 μM HPβCD, room temperature, 3 days shaking, read-out: ivacaftor solubility in HPβCD solution) worked out at 50 µg/mL (≈ 127 µM); in series [4] (βCD solution, 10 μM βCD, read-out: ivacaftor solubility in βCD solution), 1.2 µg/mL (≈ 3.06 µM); in series [4] (γCD solution, 25 μM γCD, read-out: ivacaftor solubility in γCD solution) it was 0.5 µg/mL (≈ 1.27 µM). Besides, the “solubility in βCD relative to αCD and γCD” value in series [4] (same concentration (10 μM)) is 5-6 times and 5-8 times.
